We go through two compounds from patent publication US20210299098A1, “SELECTIVE ESTROGEN RECEPTOR MODULATOR FOR TREATMENT OF PANCREATIC CANCER” (CIPLA LIMITED, priority 2020, published 2021).

Molecules are shown by their SMILES. pIC50: −log10 of the molar value.

The conditions of series [1]: used as oral contraceptive; cited from earlier work.
Series [2] has as its system Miapaca2 pancreatic cancer cell line. Briefly: CellTiter-Blue cell viability assay, Miapaca2. The conditions noted are these: Homo sapiens, MIA PaCa-2; Miapaca1 cell line as printed; 96 hours treatment. The format is cell-based. The procedure:
(§1) The in vitro anti-tumor activity of levormeloxifene or its pharmaceutically acceptable salt was evaluated in six human pancreatic cancer cell lines: AsPc 1 (A), BxPC3 (B), Miapaca2 (C), Panc 10.05 (D), SW1990 (E) and Panc 1 (F). AsPc 1 (A), BxPC3 (B), Miapaca2 (C), Panc 10.05 (D), SW1990 (E) and Panc 1 (F) were established at Oncotest from the corresponding human patient derived xenograft. CAPAN-2, HUP-T3 and PA-TU-8902 were purchased from DSMZ (Braunschweig, Germany). PANC-1 was purchased from CLS Cell Line Services GmbH (Eppelheim, Germany). BxPC-3, HPAC and MIA-Pa-Ca-2 were purchased from ATCC (Rockville, Md., USA). Authenticity of cell lines was confirmed at the DSMZ by STR (short tandem repeat) analysis, a PCR based DNA-fingerprinting methodology. Cell lines were routinely passaged once or twice weekly and maintained in culture for up to 20 passages. […] Briefly, cells were harvested from exponential phase cultures, counted and plated in 96-well flat-bottom microtiter plates at a cell density of 6,000-20,000 cells/well depending on the cell line's growth rate. […] Following an incubation period of up to four hours, fluorescence (FU) was measured by using the Enspire Multimode Plate Reader (excitation λ=531 nm, emission λ=615 nm). […]

The subject of series [3] is Panc 10.05 pancreatic cancer cell line. The series can be described thus: CellTiter-Blue cell viability assay, Panc10.05. The conditions noted are these: Homo sapiens, Panc1005; Panc10.05 cell line; 96 hours treatment. The format is cell-based. The procedure: as §1
Series [4] deals with Panc 1 pancreatic cancer cell line. The series can be described thus: CellTiter-Blue cell viability assay, Panc1. Type of series: cell-based. The following applies: Homo sapiens, 96 hours treatment. The procedure: as §1
In series [5] the test system is BxPC3 pancreatic cancer cell line. Briefly: CellTiter-Blue cell viability assay, BxPC3. Type of series: cell-based. The conditions noted are these: Homo sapiens, BXPC-3, 96 hours treatment. The procedure: as §1
Series [6] deals with AsPc 1 pancreatic cancer cell line. Briefly: CellTiter-Blue cell viability assay, AsPC1. Type of series: cell-based. The conditions noted are these: Homo sapiens, 96 hours treatment. The procedure:
as §1

The test system of series [7] is SW1990 pancreatic cancer cell line. The series can be described thus: CellTiter-Blue cell viability assay, SW1990. The format is cell-based. The following applies: Homo sapiens, 96 hours treatment. The procedure: as §1
Another series relates to HPAC cell line. The series can be described thus: CellTiter-Blue cell viability assay, HPAC. Type of series: cell-based. The conditions noted are these: Homo sapiens, most resistant cell line, read-out: individual IC50.
Excerpt: as §1, with “AsPc” for “The in vitro anti-tumor activity of levormeloxifene or its pharmaceutically acceptable salt was evaluated in six human pancreatic cancer cell lines: AsPc 1 (A), BxPC3 (B), Miapaca2 (C), Panc 10.05 (D), SW1990 (E) and Panc 1 (F). AsPc”, “passages. All cells were grown at 37° C. in a humidified atmosphere with 5% CO2 in RPMI 1640 medium (25 mM HEPES, with L-glutamine, #FG1385, Biochrom, Berlin, Germany) supplemented with 10% (v/v) fetal calf serum (Sigma, Taufkirchen, Germany) and 0.1 mg/mL gentamicin (Life Technologies, Karlsruhe, Germany).” for “passages.”

A further series concerns PA-TU-8902 cell line. Briefly: CellTiter-Blue cell viability assay, PA-TU-8902. The format is cell-based. The conditions noted are these: Homo sapiens, PaTu 8902; PA-TU-8902, text value; read-out: individual IC50.
Excerpt: as §1, with “AsPc” for “The in vitro anti-tumor activity of levormeloxifene or its pharmaceutically acceptable salt was evaluated in six human pancreatic cancer cell lines: AsPc 1 (A), BxPC3 (B), Miapaca2 (C), Panc 10.05 (D), SW1990 (E) and Panc 1 (F). AsPc”, “passages. All cells were grown at 37° C. in a humidified atmosphere with 5% CO2 in RPMI 1640 medium (25 mM HEPES, with L-glutamine, #FG1385, Biochrom, Berlin, Germany) supplemented with 10% (v/v) fetal calf serum (Sigma, Taufkirchen, Germany) and 0.1 mg/mL gentamicin (Life Technologies, Karlsruhe, Germany).” for “passages.”

For series [8], the system named is human pancreatic cancer cell lines. The series can be described thus: CellTiter-Blue cell viability assay, panel of pancreatic cancer cell lines. The format is cell-based. The procedure:
The in vitro anti-tumor activity of levormeloxifene or its pharmaceutically acceptable salt was evaluated in six human pancreatic cancer cell lines: AsPc 1 (A), BxPC3 (B), Miapaca2 (C), Panc 10.05 (D), SW1990 (E) and Panc 1 (F).
AsPc 1 (A), BxPC3 (B), Miapaca2 (C), Panc 10.05 (D), SW1990 (E) and Panc 1 (F) were established at Oncotest from the corresponding human patient derived xenograft. CAPAN-2, HUP-T3 and PA-TU-8902 were purchased from DSMZ (Braunschweig, Germany). PANC-1 was purchased from CLS Cell Line Services GmbH (Eppelheim, Germany). BxPC-3, HPAC and MIA-Pa-Ca-2 were purchased from ATCC (Rockville, Md., USA). Authenticity of cell lines was confirmed at the DSMZ by STR (short tandem repeat) analysis, a PCR based DNA-fingerprinting methodology. Cell lines were routinely passaged once or twice weekly and maintained in culture for up to 20 passages. […]
The CellTiter-Blue® Cell Viability Assay (#G8081, Promega) was used according to manufacturer's instructions. Briefly, cells were harvested from exponential phase cultures, counted and plated in 96-well flat-bottom microtiter plates at a cell density of 6,000-20,000 cells/well depending on the cell line's growth rate. […] Following an incubation period of up to four hours, fluorescence (FU) was measured by using the Enspire Multimode Plate Reader (excitation λ=531 nm, emission λ=615 nm). […]

The test system of a further series is estrogen receptor. The conditions noted are these: according to literature; cited from earlier work.

Regarding `COc1ccc2c(c1)OC(C)(C)C(c1ccccc1)C2c1ccc(OCCN2CCCC2)cc1` (stereo not drawn) [Centchroman, ormeloxifene], the half-life result in series [1] is reported as “about 168 hours”.

Regarding `COc1ccc2c(c1)OC(C)(C)[C@@H](c1ccccc1)[C@@H]2c1ccc(OCCN2CCCC2)cc1` [levormeloxifene, (−)-3,4-trans-7-methoxy-2,2-dimethyl-3-phenyl-4-[4-[2-(pyrrolidin-1-yl)ethoxy]phenyl]chromane], the pIC50 in series [2] is 4.66; in series [3] it was 4.62; in [4], 4.62; in [5] it was 4.68; in [6], 4.74; in [7], 4.57. In addition, the negative-log IC50 (pIC50) with HPAC cell line is 2.27; in the series with PA-TU-8902 cell line, 2.99. Also, in series [8] (HUP-T3 vs HPAC IC50), the “difference between the most sensitive and most resistant cell line” value came to 7.4 fold. Also, the “activity in all cell lines tested (concentration-effect curves)” value in series [8] (sigmoidal concentration-effect curves) is listed as “concentration-dependent activity”. Further, in the series on estrogen receptor, the “receptor affinity relative to the D-isomer” value is recorded as “about 7 times”.
